Measured values: US10457891B2, “Organic compounds” (Givaudan, S.A., priority 2013, dated 2019)
Read-outs that look alike come from different tables or passages of the source.

Legend:
[1] = tested on: hepatocytes from male rats (Sprague Dawley); experiment: In vitro metabolism study in rat hepatocytes in suspension, GC-MS; settings: for Residual concentration: male, Sprague Dawley, rat, 4 h, 100 μM
Method: In order to study in vitro metabolism in rat hepatocytes, Lilial™ and compounds of the present invention may be incubated in the presence of rat hepatocytes in suspension. Reduction in the concentration of Lilial™ and the compounds of the present invention and formation of any of the corresponding benzoic acid derivatives may be analysed by GC-MS.
Cryopreserved hepatocytes from male rats (Sprague Dawley; Lifetechnologies) were defrozen, washed in Cyropreserved Hepatocytes Recovery Medium (CHRM; Lifetechnologies) and suspended in Williams E Medium (WEM; Lifetechnologies). Lilial™, or the compounds of the present invention (final concentration: 100 μM) were added to the cells (1×10^6 viable cells/ml) and suspensions were incubated up to 4 hours at 37° C. on a shaker in duplicate. Metabolism of testosterone was monitored as positive control. Decrease of the test compounds and formation of the corresponding benzoic acid derivative was determined by GC-MS analysis of methyl esters formed after derivatisation with trimethylsilyl diazomethane (Sigma-Aldrich) in methanol. The test compounds react with diazomethane yielding a methyl ketone which was used for the quantification of Lilial™ and the compound of formula (I). Metabolism was stopped with ice cold 1 M HCl, samples were extracted with tert-butyl methyl ether (MTBE) and analysed by GC-MS. Incubations containing testosterone as control were also stopped with ice cold 1 M HCl, centrifuged to separate the cells, filtrated and the decrease of testosterone analysed by LC-MS.

[2] = tested on: reproductive organs of dogs; settings: dog, in vivo; cited from earlier work
[3] = tested on: mice; settings: mouse, in vivo; cited from earlier work
[4] = tested on: primates; settings: cited from earlier work
[5] = tested on: reproductive organs of male rats; settings: rat, in vivo; cited from earlier work
[6] = tested on: guinea-pigs; settings: guinea pig, in vivo; cited from earlier work

| SMILES | Residual concentration [1] | other results |
| --- | --- | --- |
| Cc1cc(CC(C)C)ccc1CCC=O | 0 µM |  |
| Cc1cc(CCC(C)C)ccc1CCC=O | 0 µM |  |
| Cc1cc(CCCC(C)C)ccc1CCC=O | 0 µM |  |
| Cc1cc(CC(C)C)cc(C)c1CCC=O | 0 µM |  |
| Cc1ccc(CC(C)C)cc1CC(C)C=O (centres unmarked) | 0 µM |  |
| Cc1ccc(CCCC(C)C)cc1CCC=O | 2.4 µM |  |
| CC(C=O)Cc1ccc(C(C)(C)C)cc1 (centres unmarked) [Lilial™, 3-(4-tert-butylphenyl)-2-methylpropanal] | 0 µM | Decrease / metabolism of compound in rat hepatocytes [1]: metabolised rapidly; Toxic effects on reproductive organs [2]: toxic effects on the reproductive organs; Toxic effects [3]: No effects; Toxic effects [4]: No effects; Toxic effects on reproductive organs [5]: toxic effects on the reproductive organs; Toxic effects [6]: No effects |
| C[C@]12CC[C@H]3[C@@H](CCC4=CC(=O)CC[C@@]43C)[C@@H]1CC[C@@H]2O [testosterone] |  | Decrease / metabolism of compound in rat hepatocytes ([1]; rat hepatocytes, up to 4 hours at 37° C.): rapid decrease |
